In the NIST ThermoML archive (doi:10.1016/j.jct.2014.12.020):

Assay: wn = mass fraction of the nth substance listed
Conditions: 100 kPa, Liquid; for viscosity: Concentric cylinders viscometry; for mass density: Vibrating tube method

CCC(=O)[O-].C[N+](C)(C)CCO [cholinium propanoate] + O
Conditions	mass density [kg/m3]	viscosity [mPa·s]
293.15 K, w2 = 0.003	1070.1	4600
293.15 K, w2 = 0.01	1070.9	3316.4
293.15 K, w2 = 0.021	1072.1	2130.4
293.15 K, w2 = 0.025	1072.3	1826.4
293.15 K, w2 = 0.046	1074	980.3
293.15 K, w2 = 0.064	1075.3	607
293.15 K, w2 = 0.1	1076.9	286
293.15 K, w2 = 0.127	1077.5	193.3
293.15 K, w2 = 0.208	1077.7	74.5
293.15 K, w2 = 0.262	1075.4	49.6
298.15 K, w2 = 0.003	1067.4	2918.6
298.15 K, w2 = 0.01	1068.1	2112.2
298.15 K, w2 = 0.021	1069.2	1416.6
298.15 K, w2 = 0.025	1069.5	1227.2
298.15 K, w2 = 0.046	1071.1	681.1
298.15 K, w2 = 0.064	1072.3	432.9
298.15 K, w2 = 0.1	1074	211.8
298.15 K, w2 = 0.127	1074.6	145.4
298.15 K, w2 = 0.208	1074.9	57.9
298.15 K, w2 = 0.262	1072.3	39.1
303.15 K, w2 = 0.003	1064.6	1909.6
303.15 K, w2 = 0.01	1065.3	1410
303.15 K, w2 = 0.021	1066.4	968.2
303.15 K, w2 = 0.025	1066.7	847.5
303.15 K, w2 = 0.046	1068.2	484.8
303.15 K, w2 = 0.064	1069.5	315.7
303.15 K, w2 = 0.1	1071.2	159.9
303.15 K, w2 = 0.127	1071.9	111.4
303.15 K, w2 = 0.208	1072	45.8
303.15 K, w2 = 0.262	1069.4	31.4
308.15 K, w2 = 0.003	1061.9	1285
308.15 K, w2 = 0.01	1062.5	967
308.15 K, w2 = 0.021	1063.6	678.9
308.15 K, w2 = 0.025	1063.8	599.9
308.15 K, w2 = 0.046	1065.4	353
308.15 K, w2 = 0.064	1066.7	235.1
308.15 K, w2 = 0.1	1068.4	123
308.15 K, w2 = 0.127	1069.1	86.8
308.15 K, w2 = 0.208	1069.2	36.7
308.15 K, w2 = 0.262	1066.5	25.5
313.15 K, w2 = 0.003	1059.2	888.1
313.15 K, w2 = 0.01	1059.8	680.2
313.15 K, w2 = 0.021	1060.8	487.3
313.15 K, w2 = 0.025	1061	434.3
313.15 K, w2 = 0.046	1062.6	262.3
313.15 K, w2 = 0.064	1063.9	178.4
313.15 K, w2 = 0.1	1065.7	96.1
313.15 K, w2 = 0.127	1066.4	68.7
313.15 K, w2 = 0.208	1066.3	29.8
313.15 K, w2 = 0.262	1063.6	20.8
318.15 K, w2 = 0.003	–	628.8
318.15 K, w2 = 0.01	–	489.6
318.15 K, w2 = 0.021	–	357.4
318.15 K, w2 = 0.025	–	321.1
318.15 K, w2 = 0.046	–	198.7
318.15 K, w2 = 0.064	–	137.7
318.15 K, w2 = 0.1	–	76.2
318.15 K, w2 = 0.127	–	55.1
318.15 K, w2 = 0.208	–	24.5
318.15 K, w2 = 0.262	–	17.5
